Laboratory results from PMC6881293, “Nanomolar-potency ‘co-potentiator’ therapy for cystic fibrosis caused by a defined subset of minimal function CFTR mutants” (Scientific Reports, 2019).
Blank lines part the entries; values can stand above or below the compound they belong to.

How the values were obtained:
L1077P-CFTR = target: T1, L1077P-CFTR (Homo sapiens, UniProt P13569, L1077P); assay: Short-circuit current in FRT cells expressing L1077P-CFTR; type: cell-based; details: 20 μM forskolin, 5 µM VX-770, 20 µM ASP-11
T1 construct: expressed in transfected cells; host or cells: Fischer rat thyroid (FRT) cells; gift from Drs; Andras Rab and Jeong Hong (Emory University)
Procedure: (§1) As shown in Fig. 1C and summarized in Fig. 2, ASP-11 acted in synergy with VX-770 to increase chloride current in FRT cells expressing the NBD2 mutations I1234del- and Q1313X-CFTR by ~3–9-fold compared to VX-770. I1234del- and Q1313X-CFTR-expressing cells were also treated with VX-809 for 24 hours (to consider the effect of available CFTR therapeutics) with 2–3-fold greater currents observed.
(§2) Figure 2 Summary of short-circuit current responses to modulators for CFTR mutants in transfected FRT cells. Responses to indicated CFTR mutants with 20 μM forskolin, 5 µM VX-770, 20 µM ASP-11 (with or without 3 µM VX-809 overnight). For reference, data shown for cells expressing wild type CFTR. Mean ± S.E.M., n = 3.
(§3) Short-circuit current was measured on cells cultured on Snapwell clear permeable supports (Corning) as described[10],[11]. Hemichambers were connected to a DVC-1000 voltage clamp (World Precision Instruments Inc., Sarasota, FL) via Ag/AgCl electrodes and 3 M KCl agar bridges for recording of the short-circuit current. For human airway epithelial cells, symmetrical HCO3^−-buffered solutions (in mM: 120 NaCl, 5 KCl, 1 MgCl2, 1 CaCl2, 5 Hepes, 25 NaHCO3, 10 glucose, pH 7.4) for basolateral and apical side were used. […]

R560T-CFTR = target: T2, R560T-CFTR (Homo sapiens, UniProt P13569, R560T); assay: Short-circuit current in FRT cells expressing R560T-CFTR; type: cell-based; details: 20 μM forskolin, 5 µM VX-770, 20 µM ASP-11
T2 construct: expressed in transfected cells; host or cells: Fischer rat thyroid (FRT) cells; gift from Drs; Andras Rab and Jeong Hong (Emory University)
Procedure: as §1, §2, §3

N1303K-CFTR [1] = target: T3, N1303K-CFTR (Homo sapiens, UniProt P13569, N1303K); set-up: method as in PMID 27895116, PMID 29903467; details: transfected FRT cells expressing N1303K-CFTR; cited from earlier work
T3 construct: expressed in transfected cells

N1303K-CFTR [2] = target: T3, N1303K-CFTR; assay: Short-circuit current in primary human bronchial epithelial cell cultures from a N1303K homozygous CF subject; type: cell-based
Procedure: (§4) To test the efficacy of new co-potentiators in human airway cell models, short-circuit current was measured in 16HBE14o- human airway epithelial cells in which the endogenous CFTR gene was edited to contain the N1303K mutation (16HBE-N1303Kge[21]) and in primary cultures of human bronchial epithelial cells from a N1303K homozygous CF subject. Addition of forskolin and then VX-770 to 16HBE-N1303Kge cells gave a limited response (Fig. 6A). Subsequent addition of CP-A061 or CP-D123 produced CFTRinh-172-inhibitable responses of ~10 μA/cm^2, ~6-fold greater that that produced by VX-770 alone. Increased short-circuit current was also found for these co-potentiators in the primary human bronchial epithelial cell cultures (Fig. 6B).
(§5) Figure 6 N1303K-CFTR activity in human airway epithelial cell cultures. (A) Short-circuit current in gene-edited 16HBE14o- cells expressing N1303K-CFTR. Concentrations: 20 µM amiloride, 20 µM forskolin, 5 µM VX-770, 20 µM CP-A061 and CP-D123, and 10 µM CFTRinh-172. Representative original curves (left and center) and summary of changes in current (∆Isc) (right). Mean ± S.E.M., n = 3, *P < 0.05). (B) Short-circuit current in primary cultures of human bronchial epithelial cells from a homozygous N1303K-CFTR CF subject. […]
(§6) Short-circuit current was measured on cells cultured on Snapwell clear permeable supports (Corning) as described[10],[11]. […]

N1303K-CFTR [3] = target: T3, N1303K-CFTR; assay: Short-circuit current in gene-edited 16HBE14o- cells expressing N1303K-CFTR (16HBE-N1303Kge); type: cell-based; details: 16HBE-N1303Kge cells; 20 µM compound after 20 µM forskolin and 5 µM VX-770
Procedure: as §4, §5, §6

N1303K-CFTR [4] = target: T3, N1303K-CFTR; set-up: method as in PMID 30046002; details: prior studies; cited from earlier work

T3 sequence (P13569 whole entry N1303K): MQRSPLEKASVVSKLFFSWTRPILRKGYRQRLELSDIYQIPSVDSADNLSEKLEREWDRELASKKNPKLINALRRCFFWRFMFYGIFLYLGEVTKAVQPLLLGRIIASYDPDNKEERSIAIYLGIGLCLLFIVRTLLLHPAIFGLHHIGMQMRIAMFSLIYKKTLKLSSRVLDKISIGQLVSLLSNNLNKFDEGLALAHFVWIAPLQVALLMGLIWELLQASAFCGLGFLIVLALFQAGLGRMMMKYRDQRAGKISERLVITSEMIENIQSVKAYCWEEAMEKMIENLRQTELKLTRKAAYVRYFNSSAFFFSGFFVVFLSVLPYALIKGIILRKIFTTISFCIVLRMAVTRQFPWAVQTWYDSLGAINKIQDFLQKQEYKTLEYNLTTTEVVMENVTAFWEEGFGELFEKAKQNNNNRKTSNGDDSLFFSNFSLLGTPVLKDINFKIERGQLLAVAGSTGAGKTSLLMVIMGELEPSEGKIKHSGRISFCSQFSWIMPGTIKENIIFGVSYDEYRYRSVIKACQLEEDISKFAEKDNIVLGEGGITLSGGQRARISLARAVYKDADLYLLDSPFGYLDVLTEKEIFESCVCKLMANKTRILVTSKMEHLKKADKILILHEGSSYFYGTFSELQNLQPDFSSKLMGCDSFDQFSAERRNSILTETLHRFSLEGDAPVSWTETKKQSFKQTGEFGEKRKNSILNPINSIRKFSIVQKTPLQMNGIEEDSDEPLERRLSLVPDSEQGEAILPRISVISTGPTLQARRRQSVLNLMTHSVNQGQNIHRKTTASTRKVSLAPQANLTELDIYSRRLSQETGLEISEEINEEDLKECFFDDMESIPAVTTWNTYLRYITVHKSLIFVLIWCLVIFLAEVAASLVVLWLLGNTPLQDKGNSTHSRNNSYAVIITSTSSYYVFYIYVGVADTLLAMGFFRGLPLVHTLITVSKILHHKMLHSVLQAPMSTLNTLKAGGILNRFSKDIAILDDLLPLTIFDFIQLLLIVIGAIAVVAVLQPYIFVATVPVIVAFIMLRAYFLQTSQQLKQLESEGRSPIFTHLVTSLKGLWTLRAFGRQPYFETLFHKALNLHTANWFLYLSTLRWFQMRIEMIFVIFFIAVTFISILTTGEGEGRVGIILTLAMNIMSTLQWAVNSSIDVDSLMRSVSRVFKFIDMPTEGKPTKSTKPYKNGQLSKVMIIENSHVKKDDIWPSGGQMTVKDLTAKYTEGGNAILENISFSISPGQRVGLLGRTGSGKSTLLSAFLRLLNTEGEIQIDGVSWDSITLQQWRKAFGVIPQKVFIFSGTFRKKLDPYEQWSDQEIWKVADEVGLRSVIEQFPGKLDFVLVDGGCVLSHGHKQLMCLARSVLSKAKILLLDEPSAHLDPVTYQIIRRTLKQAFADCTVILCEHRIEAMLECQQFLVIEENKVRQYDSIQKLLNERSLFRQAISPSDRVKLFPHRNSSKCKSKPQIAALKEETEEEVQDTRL
T2 sequence (P13569 whole entry R560T): as the sequence (P13569 whole entry N1303K) above, with R560T, K1303N counted along it
T1 sequence (P13569 whole entry L1077P): as the sequence (P13569 whole entry N1303K) above, with L1077P, K1303N counted along it

ASP-11 effect on short-circuit current (L1077P-CFTR): absence of ASP-11 effect | ASP-11 effect on short-circuit current (R560T-CFTR): absence of ASP-11 effect
SMILES: CCCCn1cc(S(=O)(=O)Nc2ccc(CC)cc2)c2cccnc21 [ASP-11]
increase in chloride current over that produced by a high concentration of VX-770 (N1303K-CFTR [1]): ~ 8 fold

SMILES: COc1ccc2[nH]c3c(c2c1)CCNC31CCN(Cc2ccc(F)cc2F)CC1 [Compound A061]
current as equivalent of wildtype CFTR activity (N1303K-CFTR [2]; estimate based on similarly cultured non-CF and CF human airway epithelial cell cultures): ~ 20% | CFTRinh-172-inhibitable current (N1303K-CFTR [2]; primary human bronchial cell cultures, homozygous N1303K-CFTR subject, 20 µM compound after forskolin and 5 µM VX-770): ~ 2.5 μA/cm^2 | CFTRinh-172-inhibitable short-circuit current response (N1303K-CFTR [3]): ~ 10 μA/cm^2 | response relative to that produced by VX-770 alone (N1303K-CFTR [3]): ~ 6 fold

SMILES: CC(C)(C)c1cc(C(C)(C)C)c(NC(=O)c2c[nH]c3ccccc3c2=O)cc1O [VX-770, ivacaftor]
response of N1303K-CFTR to modulator (N1303K-CFTR [4]): not responsive
